Measurements taken from ChEMBL document CHEMBL4229569, “Structure-Based Design of 1-Heteroaryl-1,3-propanediamine Derivatives as a Novel Series of CC-Chemokine Receptor 5 Antagonists” (J Med Chem, 2018).

Experiments:
[1] = target: C-C chemokine receptor type 5 (Homo sapiens, UniProt P51681); assay: Antagonist activity at CCR5 (unknown origin) expressed in HEK293 cells co-expressing Galpha16 assessed as inhibition of RANTES-induced calcium flux preincubated for 10 mins followed by RANTES addition by fluo-4AM-based fluorescence assay; assay type: functional, cell-based
Chain of C-C chemokine receptor type 5 (P51681 whole entry): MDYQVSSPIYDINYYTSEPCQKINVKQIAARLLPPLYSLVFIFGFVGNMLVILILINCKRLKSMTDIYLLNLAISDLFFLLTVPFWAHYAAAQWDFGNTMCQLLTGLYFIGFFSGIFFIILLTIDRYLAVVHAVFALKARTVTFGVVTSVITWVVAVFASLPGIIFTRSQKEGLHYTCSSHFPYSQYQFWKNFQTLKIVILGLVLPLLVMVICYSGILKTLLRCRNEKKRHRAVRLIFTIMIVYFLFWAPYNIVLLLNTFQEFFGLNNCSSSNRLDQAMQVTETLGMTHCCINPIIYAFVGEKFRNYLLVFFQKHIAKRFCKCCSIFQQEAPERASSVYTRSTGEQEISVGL

[2] = Cytotoxicity against human TZM-bl cells after 48 hrs by MTT assay; assay type: cell-based
[3] = Cmax in Sprague-Dawley rat at 20 mg/kg, po by LC-MS/MS analysis; assay type: ADME, organism-based; design: dose 20 mg/kg, route oral; conditions: in vivo
[4] = Tmax in Sprague-Dawley rat at 20 mg/kg, po by LC-MS/MS analysis; assay type: ADME, organism-based; conditions: in vivo
[5] = Half life in Sprague-Dawley rat at 20 mg/kg, po by LC-MS/MS analysis; assay type: ADME, organism-based; conditions: in vivo
[6] = AUC (0 to infinity) in Sprague-Dawley rat at 20 mg/kg, po by LC-MS/MS analysis; assay type: ADME, organism-based; design: dose 20 mg/kg, route oral, time infinity; conditions: in vivo
[7] = MRT in Sprague-Dawley rat at 20 mg/kg, po by LC-MS/MS analysis; assay type: ADME, organism-based; conditions: in vivo
[8] = Oral bioavailability in Sprague-Dawley rat at 20 mg/kg by LC-MS/MS analysis; assay type: ADME, organism-based; conditions: in vivo
[9] = Cmax in Sprague-Dawley rat at 10 mg/kg, iv by LC-MS/MS analysis; assay type: ADME, organism-based; design: dose 10 mg/kg, route intravenous; conditions: in vivo
[10] = Tmax in Sprague-Dawley rat at 10 mg/kg, iv by LC-MS/MS analysis; assay type: ADME, organism-based; conditions: in vivo
[11] = Half life in Sprague-Dawley rat at 10 mg/kg, iv by LC-MS/MS analysis; assay type: ADME, organism-based; conditions: in vivo
[12] = AUC (0 to infinity) in Sprague-Dawley rat at 10 mg/kg, iv by LC-MS/MS analysis; assay type: ADME, organism-based; design: dose 10 mg/kg, time infinity, route intravenous; conditions: in vivo
[13] = MRT in Sprague-Dawley rat at 10 mg/kg, iv by LC-MS/MS analysis; assay type: ADME, organism-based; conditions: in vivo
[14] = Clearance in Sprague-Dawley rat at 10 mg/kg, iv by LC-MS/MS analysis; assay type: ADME, organism-based; conditions: in vivo
[15] = Cmax in dog at 15 mg/kg, po by LC-MS/MS analysis; assay type: ADME, organism-based, Canis lupus familiaris; design: dose 15 mg/kg, route oral; conditions: in vivo
[16] = Tmax in dog at 15 mg/kg, po by LC-MS/MS analysis; assay type: ADME, organism-based, Canis lupus familiaris; conditions: in vivo
[17] = Half life in dog at 15 mg/kg, po by LC-MS/MS analysis; assay type: ADME, organism-based, Canis lupus familiaris; conditions: in vivo
[18] = AUC (0 to infinity) in dog at 15 mg/kg, po by LC-MS/MS analysis; assay type: ADME, organism-based, Canis lupus familiaris; design: dose 15 mg/kg, time infinity, route oral; conditions: in vivo
[19] = MRT in dog at 15 mg/kg, po by LC-MS/MS analysis; assay type: ADME, organism-based, Canis lupus familiaris; conditions: in vivo
[20] = Oral bioavailability in dog at 15 mg/kg by LC-MS/MS analysis; assay type: ADME, organism-based, Canis lupus familiaris; conditions: in vivo
[21] = Half life in dog at 3 mg/kg, iv by LC-MS/MS analysis; assay type: ADME, organism-based, Canis lupus familiaris; conditions: in vivo
[22] = AUC (0 to infinity) in dog at 3 mg/kg, iv by LC-MS/MS analysis; assay type: ADME, organism-based, Canis lupus familiaris; design: dose 3 mg/kg, route intravenous, time infinity; conditions: in vivo
[23] = MRT in dog at 3 mg/kg, iv by LC-MS/MS analysis; assay type: ADME, organism-based, Canis lupus familiaris; conditions: in vivo
[24] = Clearance in dog at 3 mg/kg, iv by LC-MS/MS analysis; assay type: ADME, organism-based, Canis lupus familiaris; conditions: in vivo
[25] = target: Voltage-gated inwardly rectifying potassium channel KCNH2 (Homo sapiens, UniProt Q12809); assay: Inhibition of human ERG expressed in CHO cells at holding potential of -80 mV after 60 secs by patch clamp assay; assay type: cell-based
Chain of Voltage-gated inwardly rectifying potassium channel KCNH2 (Q12809 whole entry): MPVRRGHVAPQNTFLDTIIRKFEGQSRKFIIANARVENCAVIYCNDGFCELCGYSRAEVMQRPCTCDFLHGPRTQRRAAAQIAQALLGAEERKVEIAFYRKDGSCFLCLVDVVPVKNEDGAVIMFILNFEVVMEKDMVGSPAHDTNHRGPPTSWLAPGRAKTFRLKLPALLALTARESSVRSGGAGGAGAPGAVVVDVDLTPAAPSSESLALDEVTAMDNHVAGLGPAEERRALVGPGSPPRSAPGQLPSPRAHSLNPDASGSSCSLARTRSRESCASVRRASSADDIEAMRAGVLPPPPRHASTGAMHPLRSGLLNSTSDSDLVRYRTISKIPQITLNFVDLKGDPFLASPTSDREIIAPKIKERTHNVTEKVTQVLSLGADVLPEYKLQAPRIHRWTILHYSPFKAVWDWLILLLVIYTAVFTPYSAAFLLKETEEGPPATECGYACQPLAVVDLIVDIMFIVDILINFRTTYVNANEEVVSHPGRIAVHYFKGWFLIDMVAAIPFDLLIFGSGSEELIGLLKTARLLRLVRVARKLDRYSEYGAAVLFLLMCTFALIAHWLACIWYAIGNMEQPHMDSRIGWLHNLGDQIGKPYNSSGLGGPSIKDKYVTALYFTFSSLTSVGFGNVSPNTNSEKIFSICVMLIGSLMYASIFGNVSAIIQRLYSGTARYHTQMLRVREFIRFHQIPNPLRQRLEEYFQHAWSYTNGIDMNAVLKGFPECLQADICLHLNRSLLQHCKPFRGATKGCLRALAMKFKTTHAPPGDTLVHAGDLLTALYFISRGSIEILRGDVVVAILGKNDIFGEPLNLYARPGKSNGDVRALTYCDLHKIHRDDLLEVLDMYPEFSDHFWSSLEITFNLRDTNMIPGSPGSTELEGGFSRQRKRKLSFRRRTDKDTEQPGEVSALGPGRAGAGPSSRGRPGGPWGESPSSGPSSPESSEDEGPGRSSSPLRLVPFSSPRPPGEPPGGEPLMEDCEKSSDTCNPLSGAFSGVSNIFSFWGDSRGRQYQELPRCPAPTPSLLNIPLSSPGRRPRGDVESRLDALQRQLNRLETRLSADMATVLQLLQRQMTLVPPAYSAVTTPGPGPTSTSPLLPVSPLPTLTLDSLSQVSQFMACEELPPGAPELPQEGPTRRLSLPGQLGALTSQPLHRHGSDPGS

Cytochrome P450 1A2 = target: T1, Cytochrome P450 1A2 (Homo sapiens, UniProt P05177); assay: Inhibition of CYP1A2 (unknown origin); assay type: ADME
T1 sequence (P05177 whole entry): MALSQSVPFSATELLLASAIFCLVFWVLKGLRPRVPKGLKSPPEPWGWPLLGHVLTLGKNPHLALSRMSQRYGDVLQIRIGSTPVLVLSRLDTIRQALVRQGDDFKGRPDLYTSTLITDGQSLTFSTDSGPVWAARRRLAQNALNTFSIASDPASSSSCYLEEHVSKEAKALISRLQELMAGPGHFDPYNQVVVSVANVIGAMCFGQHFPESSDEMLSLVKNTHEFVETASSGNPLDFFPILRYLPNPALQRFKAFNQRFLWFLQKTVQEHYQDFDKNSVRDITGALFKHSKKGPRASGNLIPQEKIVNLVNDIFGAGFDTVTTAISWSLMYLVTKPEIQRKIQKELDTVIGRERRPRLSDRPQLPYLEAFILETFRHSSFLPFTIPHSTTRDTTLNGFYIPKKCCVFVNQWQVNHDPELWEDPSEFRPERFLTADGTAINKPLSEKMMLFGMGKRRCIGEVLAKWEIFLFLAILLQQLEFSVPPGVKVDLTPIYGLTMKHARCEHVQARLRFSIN

Cytochrome P450 2C9 = Cytochrome P450 2C9 (Homo sapiens, UniProt P11712); assay: Inhibition of CYP2C9 (unknown origin); assay type: ADME
Chain of Cytochrome P450 2C9 (P11712 whole entry): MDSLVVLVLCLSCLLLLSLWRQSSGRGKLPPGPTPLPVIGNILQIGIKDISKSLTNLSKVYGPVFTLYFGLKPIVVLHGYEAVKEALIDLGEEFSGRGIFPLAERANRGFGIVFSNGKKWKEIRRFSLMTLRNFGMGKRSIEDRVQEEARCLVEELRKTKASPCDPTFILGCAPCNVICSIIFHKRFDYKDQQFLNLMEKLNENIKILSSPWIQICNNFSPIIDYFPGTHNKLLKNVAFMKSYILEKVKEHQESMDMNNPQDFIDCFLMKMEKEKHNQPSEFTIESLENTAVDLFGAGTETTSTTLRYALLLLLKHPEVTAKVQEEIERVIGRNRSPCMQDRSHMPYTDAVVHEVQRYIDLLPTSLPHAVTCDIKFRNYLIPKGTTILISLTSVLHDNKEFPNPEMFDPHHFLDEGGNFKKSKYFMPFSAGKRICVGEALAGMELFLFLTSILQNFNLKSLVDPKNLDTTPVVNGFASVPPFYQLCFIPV

Cytochrome P450 2C19 = Cytochrome P450 2C19 (Homo sapiens, UniProt P33261); assay: Inhibition of CYP2C19 (unknown origin); assay type: ADME
Chain of Cytochrome P450 2C19 (P33261 whole entry): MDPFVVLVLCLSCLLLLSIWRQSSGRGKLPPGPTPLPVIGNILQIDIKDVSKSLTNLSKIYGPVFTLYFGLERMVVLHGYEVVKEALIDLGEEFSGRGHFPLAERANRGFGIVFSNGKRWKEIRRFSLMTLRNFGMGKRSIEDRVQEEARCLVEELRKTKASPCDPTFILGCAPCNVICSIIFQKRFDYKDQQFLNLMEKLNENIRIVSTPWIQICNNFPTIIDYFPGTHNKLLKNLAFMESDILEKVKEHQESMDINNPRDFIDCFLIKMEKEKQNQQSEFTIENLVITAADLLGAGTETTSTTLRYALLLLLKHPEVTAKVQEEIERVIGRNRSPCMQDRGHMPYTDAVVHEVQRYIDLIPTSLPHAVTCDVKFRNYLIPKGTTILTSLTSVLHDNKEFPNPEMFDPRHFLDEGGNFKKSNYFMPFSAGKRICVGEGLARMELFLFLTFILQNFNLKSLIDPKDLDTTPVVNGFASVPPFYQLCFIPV

Cytochrome P450 2D6 = Cytochrome P450 2D6 (Homo sapiens, UniProt P10635); assay: Inhibition of CYP2D6 (unknown origin); assay type: ADME
Chain of Cytochrome P450 2D6 (P10635 whole entry): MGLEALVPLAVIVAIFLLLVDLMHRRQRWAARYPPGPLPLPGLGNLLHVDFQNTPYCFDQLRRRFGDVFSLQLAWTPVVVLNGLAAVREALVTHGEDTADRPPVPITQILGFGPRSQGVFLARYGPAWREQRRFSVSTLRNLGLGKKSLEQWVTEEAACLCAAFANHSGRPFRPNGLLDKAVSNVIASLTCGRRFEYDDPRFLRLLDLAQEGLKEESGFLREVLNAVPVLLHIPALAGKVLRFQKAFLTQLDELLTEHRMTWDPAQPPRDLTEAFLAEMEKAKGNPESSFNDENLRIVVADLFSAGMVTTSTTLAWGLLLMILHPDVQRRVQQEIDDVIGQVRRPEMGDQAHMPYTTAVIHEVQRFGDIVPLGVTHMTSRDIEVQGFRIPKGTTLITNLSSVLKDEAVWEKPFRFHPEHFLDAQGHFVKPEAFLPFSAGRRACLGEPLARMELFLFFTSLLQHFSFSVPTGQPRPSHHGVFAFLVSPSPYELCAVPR

Cytochrome P450 3A4 [26] = target: T2, Cytochrome P450 3A4 (Homo sapiens, UniProt P08684); assay: Inhibition of CYP3A4 (unknown origin) using midazolam as substrate; assay type: ADME
T2 sequence (P08684 whole entry): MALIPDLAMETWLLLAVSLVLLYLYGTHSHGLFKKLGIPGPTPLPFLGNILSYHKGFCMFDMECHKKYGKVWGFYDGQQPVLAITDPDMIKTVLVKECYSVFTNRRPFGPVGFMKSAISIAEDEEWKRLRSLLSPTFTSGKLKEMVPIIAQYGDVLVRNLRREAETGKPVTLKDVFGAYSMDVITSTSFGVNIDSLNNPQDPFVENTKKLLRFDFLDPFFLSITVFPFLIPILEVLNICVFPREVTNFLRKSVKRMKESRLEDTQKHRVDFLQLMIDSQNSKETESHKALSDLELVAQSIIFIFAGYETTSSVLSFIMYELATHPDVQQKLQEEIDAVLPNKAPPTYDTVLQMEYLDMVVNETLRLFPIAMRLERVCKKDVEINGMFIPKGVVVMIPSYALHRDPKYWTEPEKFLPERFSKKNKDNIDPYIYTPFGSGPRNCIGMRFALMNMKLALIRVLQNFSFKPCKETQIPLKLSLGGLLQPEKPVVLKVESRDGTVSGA

Cytochrome P450 3A4 [27] = target: T2, Cytochrome P450 3A4; assay: Inhibition of CYP3A4 (unknown origin) using testosterone as substrate; assay type: ADME
in vitro [28] = conditions: human, TZM-bl cells
Description: Therapeutic index, ratio of CC50 for human TZM-bl cells to EC50 for CCR5-dependent HIV1 SF162 infected in human TZM-bl cells

in vitro [29] = conditions: human, PBMC
Description: Therapeutic index, ratio of CC50 for human PBMC to IC50 for CCR5-dependent HIV1 SF162 infected in human PBMC cells

in vitro [30] = conditions: human, HOS cells
Description: Therapeutic index, ratio of CC50 for human HOS cells to IC50 for CCR5-dependent HIV1 SF162 infected in human HOS cells

in vitro [31] = conditions: human, PBMC; remark: listed apart in the source
Description: Therapeutic index, ratio of CC50 for human PBMC to IC50 for CCR5-dependent HIV1 KM018 infected in human PBMC

in vitro [32] = conditions: human, PBMC; remark: listed apart in the source
Description: Therapeutic index, ratio of CC50 for human PBMC to IC50 for CCR5-dependent HIV1 Ba-L infected in human PBMC

in vitro [33] = conditions: human, HOS cells; remark: listed apart in the source
Description: Therapeutic index, ratio of CC50 for human HOS cells to IC50 for CCR5-dependent HIV1 Ba-L infected in human HOS cells

in vitro [34] = conditions: human, PM1 cells
Description: Therapeutic index, ratio of CC50 for human PM1 cells to IC50 for CCR5-dependent HIV1 Ba-L infected in human PM1 cells

[35] = system: Human immunodeficiency virus 1; assay: microbe, parasite or virus in culture; conditions: Human immunodeficiency virus 1, SF162, TZM-bl, 48 h
Description: Antiviral activity against CCR5-dependent HIV1 SF162 infected in human TZM-bl cells assessed as reduction in virus infection measured after 48 hrs post infection by luciferase reporter gene assay

[36] = system: Human immunodeficiency virus 1; assay: microbe, parasite or virus in culture; conditions: Human immunodeficiency virus 1, SF162, PBMC, 168 h
Description: Antiviral activity against CCR5-dependent HIV1 SF162 infected in human PBMC assessed as reduction in virus infection measured after 7 days by luciferase reporter gene assay

[37] = system: Human immunodeficiency virus 1; assay: microbe, parasite or virus in culture; conditions: Human immunodeficiency virus 1, SF162, HOS, 120 h
Description: Antiviral activity against CCR5-dependent HIV1 SF162 infected in human HOS cells assessed as reduction in virus infection measured after 5 days by luciferase reporter gene assay

[38] = system: Human immunodeficiency virus 1; assay: microbe, parasite or virus in culture; conditions: Human immunodeficiency virus 1, KM018, PBMC, 168 h
Description: Antiviral activity against CCR5-dependent HIV1 KM018 infected in human PBMC assessed as reduction in virus infection measured after 7 days by luciferase reporter gene assay

[39] = system: Human immunodeficiency virus 1; assay: microbe, parasite or virus in culture; conditions: Human immunodeficiency virus 1, Ba-L, PBMC, 168 h
Description: Antiviral activity against CCR5-dependent HIV1 Ba-L infected in human PBMC assessed as reduction in virus infection measured 7 days by luciferase reporter gene assay

[40] = system: Human immunodeficiency virus 1; assay: microbe, parasite or virus in culture; conditions: Human immunodeficiency virus 1, Ba-L, HOS, 120 h
Description: Antiviral activity against CCR5-dependent HIV1 Ba-L infected in human HOS cells assessed as reduction in virus infection measured after 5 days by luciferase reporter gene assay

[41] = system: Human immunodeficiency virus 1; assay: microbe, parasite or virus in culture; conditions: Human immunodeficiency virus 1, Ba-L, PM1, 120 h
Description: Antiviral activity against CCR5-dependent HIV1 Ba-L infected in human PM1 cells assessed as reduction in virus infection measured after 5 days by luciferase reporter gene assay

Hepatocyte [42] = assay: Metabolic stability in human hepatocytes assessed as compound remaining by UPLC/Q-TOF mass spectrometric analysis; assay type: ADME, cell-based
Hepatocyte [43] = assay: Metabolic stability in monkey hepatocytes assessed as compound remaining by UPLC/Q-TOF mass spectrometric analysis; assay type: ADME, cell-based, Macaca mulatta; conditions: rhesus monkey
Hepatocyte [44] = assay: Metabolic stability in dog hepatocytes assessed as compound remaining by UPLC/Q-TOF mass spectrometric analysis; assay type: ADME, cell-based, Canis lupus familiaris
Hepatocyte [45] = assay: Metabolic stability in rat hepatocytes assessed as compound remaining by UPLC/Q-TOF mass spectrometric analysis; assay type: ADME, cell-based
Rattus norvegicus = assay: Toxicity in rat assessed as mortality at 2000 mg/kg, po administered as single dose and measured during 14 days observation period; assay type: organism-based; conditions: in vivo, 336 h
Canis familiaris = assay: Toxicity in po dosed dog assessed as drug tolerability administered as single dose; assay type: organism-based, Canis lupus familiaris; conditions: in vivo

SMILES: Cc1nnc(C(C)C)n1[C@@H]1C[C@H]2CC[C@@H](C1)N2CC[C@H](NC(=O)C1CCCC1)c1cccs1
- IC50 [1]: 3.1 nM
- CC50 at 48 h [2]: > 200000 nM
- Cmax [3]: 436 ng/mL
- Tmax [4]: 2 h
- half-life [5]: 1.65 h
- AUC(0-inf) [6]: 1670 ng·h/mL
- MRT [7]: 3.02 h
- bioavailability [8]: 33.4%
- Cmax [9]: 2220 ng/mL
- Tmax [10]: 0.25 h
- half-life [11]: 1.31 h
- AUC(0-inf) [12]: 2500 ng·h/mL
- MRT [13]: 0.91 h
- clearance [14]: 66.5 mL/min/kg
- Cmax [15]: 1160 ng/mL
- Tmax [16]: 0.8 h
- half-life [17]: 2.5 h
- AUC(0-inf) [18]: 2160 ng·h/mL
- MRT [19]: 2.4 h
- bioavailability [20]: 38.1%
- half-life [21]: 0.9 h
- AUC(0-inf) [22]: 1100 ng·h/mL
- MRT [23]: 0.7 h
- clearance [24]: 46.7 mL/min/kg
- IC50 [25]: 1520 nM
- IC50 (Cytochrome P450 1A2): > 25000 nM
- IC50 (Cytochrome P450 2C9): > 25000 nM
- IC50 (Cytochrome P450 2C19): > 25000 nM
- IC50 (Cytochrome P450 2D6): 16800 nM
- IC50 (Cytochrome P450 3A4 [26]): > 25000 nM
- IC50 (Cytochrome P450 3A4 [27]): > 25000 nM
- selectivity ratio (in vitro [28]): > 150000
- selectivity ratio (in vitro [29]): 6100
- selectivity ratio (in vitro [30]): 25000
- selectivity ratio (in vitro [31]): 4000
- selectivity ratio (in vitro [32]): 5900
- selectivity ratio (in vitro [33]): 330000
- selectivity ratio (in vitro [34]): 220000
- IC50 [35]: 1.3 nM
- IC50 [36]: 123 nM
- IC50 [37]: 21 nM
- IC50 [38]: 190 nM
- IC50 [39]: 127 nM
- IC50 [40]: 1.6 nM
- IC50 [41]: 3.4 nM

SMILES: Cc1nnc(C(C)C)n1[C@@H]1C[C@H]2CC[C@@H](C1)N2CC[C@H](NC(=O)C1CCC(F)(F)CC1)c1ccsc1
- IC50 [1]: 3 nM
- CC50 at 48 h [2]: > 200000 nM
- Cmax [3]: 306 ng/mL
- Tmax [4]: 2 h
- half-life [5]: 1.6 h
- AUC(0-inf) [6]: 1260 ng·h/mL
- MRT [7]: 2.6 h
- bioavailability [8]: 14.5%
- Cmax [9]: 3780 ng/mL
- Tmax [10]: 0.25 h
- half-life [11]: 1.02 h
- AUC(0-inf) [12]: 4160 ng·h/mL
- MRT [13]: 0.8 h
- clearance [14]: 16.7 mL/min/kg
- Cmax [15]: 4610 ng/mL
- Tmax [16]: 0.8 h
- half-life [17]: 3.9 h
- AUC(0-inf) [18]: 5520 ng·h/mL
- MRT [19]: 2.1 h
- bioavailability [20]: 10%
- half-life [21]: 1.7 h
- AUC(0-inf) [22]: 10900 ng·h/mL
- MRT [23]: 1.6 h
- clearance [24]: 5 mL/min/kg
- Stability (Hepatocyte [42]): > 99%
- Stability (Hepatocyte [43]): > 98%
- Stability (Hepatocyte [44]): > 97%
- Stability (Hepatocyte [45]): > 97%
- IC50 [25]: > 40000 nM
- IC50 (Cytochrome P450 1A2): > 25000 nM
- IC50 (Cytochrome P450 2C9): > 25000 nM
- IC50 (Cytochrome P450 2C19): > 25000 nM
- IC50 (Cytochrome P450 2D6): > 25000 nM
- IC50 (Cytochrome P450 3A4 [26]): > 25000 nM
- IC50 (Cytochrome P450 3A4 [27]): > 25000 nM
- Activity (Rattus norvegicus): Non-Toxic
- Activity (Canis familiaris): Non-Toxic
- selectivity ratio (in vitro [28]): > 130000
- selectivity ratio (in vitro [29]): 160000
- selectivity ratio (in vitro [30]): 69000
- selectivity ratio (in vitro [31]): 290000
- selectivity ratio (in vitro [32]): 220000
- selectivity ratio (in vitro [33]): 280000
- selectivity ratio (in vitro [34]): 260000
- IC50 [35]: 1.5 nM
- IC50 [36]: 4.3 nM
- IC50 [37]: 4.9 nM
- IC50 [38]: 2.3 nM
- IC50 [39]: 3 nM
- IC50 [40]: 1.2 nM
- IC50 [41]: 2.8 nM
